Laboratory results published in patent publication US7683090B2, “Treating agent for irritable bowel syndrome” (Astellas Pharma Inc., priority 2004, dated 2010).
Where a name gives a salt, the structure may show the parent alone. Read-outs that look alike come from different tables or passages of the source.

Assays:
[1] = test system: patients suffering from non-constipated irritable bowel syndrome; details: 1 to 8 mg twice daily, cited from earlier work
[2] = test system: male and female patients suffering from diarrhea-predominant irritable bowel syndrome (IBS); assay: Clinical study with patients suffering from diarrhea-predominant irritable bowel syndrome (Test Example 1); assay type: in vivo, human; details: for final monthly responder rate in the global assessment of relief of overall IBS symptoms: placebo group 26.9%
Description: Clinical study was carried out under the following condition using male and female patients suffering from diarrhea-predominant irritable bowel syndrome (IBS) as subjects.
Subjects: Patients suffering from diarrhea-predominant IBS in accordance with the Rome II Diagnosis Criteria (D. A. Drossman, et al., pages 351 to 432, ROME II: The functional Gastrointestinal Disorders, Second Edition, Degnon Associates, McLean, 2000).
Test drugs and Administration Methods: Placebo and ramosetron hydrochloride were orally administered for 12 weeks at 0.005 mg or 0.01 mg once daily.
Test Periods: Observation period for one week and treating period for 12 weeks
After transition to the treating period, the starting date for administration of the test drug was defined as the first day. Every week, global assessment of relief of overall IBS symptoms was evaluated taking all symptoms by IBS of the subjects into consideration, comparing with their state in the observation period, and this evaluation was recorded in a patient diary. Incidentally, scores for the global assessment of relief of overall IBS symptoms were as follows.
The subjects where the score was 0 or 1 for two weeks or more during the four weeks were made monthly responders and the monthly responder rate per month was calculated separately for each group of 0.005 mg and 0.01 mg of placebo and ramosetron hydrochloride.
After transition to the treating period, the starting date for administration of the test drug was defined as the first day. Every week, global assessment of relief of abdominal discomfort/pain by the test drug was evaluated with the state in the observation period and was recorded in a patient diary. Incidentally, scores for the global assessment of relief of abdominal discomfort/pain were as follows.
After transition to the treating period, the starting date for administration of the test drug was defined as the first day. Every week, global assessment of improvement of abnormal bowel habits was evaluated comparing with the state in the observation period, and was recorded in a patient diary. Incidentally, scores for the global assessment of improvement of abnormal bowel habits were as follows.
With regard to (1) to (3) for the subsidiary evaluation items, they were also subjected to calculations of monthly responder rate the same as those for the main evaluation items.

[3] = test system: patients suffering from irritable bowel syndrome; assay: Former clinical studies, ramosetron hydrochloride administered twice daily to patients suffering from irritable bowel syndrome; assay type: in vivo, human
From the text: The present inventors have carried out intensive investigations for the purpose of creation of novel treating agents for irritable bowel syndrome including non-constipated irritable bowel syndrome such as diarrhea-predominant irritable bowel syndrome and alternating constipation/diarrhea irritable bowel syndrome for which no sufficiently effective treating agent has been available.

[4] = 0.005 mg and 0.01 mg once daily, 12 weeks

Structure (SMILES)	relief of pain and discomfort, stool consistency, bowel movement frequency and proportion of days with urgency, compared with placebo ([1]; female patients)	relief of pain and discomfort, stool consistency, bowel movement frequency and proportion of days with urgency, compared with placebo ([1]; male patients)	difference in the responder rates between placebo group and ramosetron group: male versus female patients ([2]; 0.005 mg and 0.01 mg once daily)	final monthly responder rate in the global assessment of relief of abdominal discomfort/pain, better than the placebo group [2, 4]	final monthly responder rate in the global assessment of relief of abnormal bowel habits, better than the placebo group [2, 4]	therapeutic effect in patients suffering from diarrhea-predominant irritable bowel syndrome (conclusion) ([2]; 0.005 mg and 0.01 mg, administration once daily)	final monthly responder rate in the global assessment of relief of overall IBS symptoms ([2]; 0.005 mg orally once daily, 12 weeks, p 0.0273 to placebo) [%]	final monthly responder rate in the global assessment of relief of overall IBS symptoms ([2]; 0.01 mg orally once daily, 12 weeks, p 0.0264 to placebo) [%]	monthly responder rate (overall IBS symptoms) in excess of the responder rate in the placebo group ([2]; groups of 0.005 mg and 0.01 mg once daily, 12 weeks)	therapeutic effect as compared with placebo [3]
Cc1[nH]cnc1CN1CCc2c(c3ccccc3n2C)C1=O [alosetron]	significant improvement was noted in female patients	no significant improvement was noted as compared with placebo except stool consistency	–	–	–	–	–	–	–	–
Cn1cc(C(=O)[C@@H]2CCc3[nH]cnc3C2)c2ccccc21 [ramosetron hydrochloride, (−)-(R)-5-[(1-methyl-1H-indol-3-yl)carbonyl]-4,5,6,7-tetrahydro-1H-benzimidazole]	–	–	no difference was noted between male and female patients	more than 10%	more than 10%	effective for both males and females	42.6	43.0	more than 15%	significant therapeutic effect as compared with placebo was unable to be confirmed
